Assay results as given in ChEMBL document CHEMBL4004862, “Discovery of novel CDK8 inhibitors using multiple crystal structures in docking-based virtual screening” (Eur J Med Chem, 2017).

Target: T1, CDK8/Cyclin C (Homo sapiens) (UniProt P49336+P24863)
Experiment: Inhibition of Alexa647 tracer binding to full length recombinant human His-tagged CDK8/Cyclin C expressed in baculovirus expression system at 5 uM preincubated for 20 mins followed by tracer addition measured after 60 mins by TR-FRET based Lanthascreen assay relative to control

Row | Compound | inhibition [%]
1 | O=C(Nc1cccc2ccccc12)c1cccc(C2CSC(S(=O)(=O)N3CCOCC3)C2)c1 (stereo not given) | -1
2 | Cc1c(C(=O)Nc2ccc3ccc(=O)oc3c2)nnn1-c1ccc2noc(-c3ccccc3)c2c1 | 52
3 | Fc1ccc(N2CCN(c3ncnc4sc5c(c34)CCCC5)CC2)cc1 | 81
4 | CC(=O)c1ccc(NC(=O)COc2cc(-c3ccccc3)nc3ccc(F)cc23)cc1 | 10
5 | CCCn1c(=O)oc2cc(NC(=O)Nc3cccc(C)c3)ccc21 | 18
6 | CN1C(=O)c2ccccc2C(C(=O)Nc2ccc(S(=O)(=O)N3CCCCC3)cc2)C1c1cccs1 (stereo not given) | -6
7 | Cc1ccc(NC(=O)CCc2nc3ccncc3[nH]2)cc1F | 7
8 | Cc1cccc(N2CCN(c3ncnc4onc(C)c34)CC2)c1C | 28
9 | CSc1cccc(NC(=O)NC2CCN(c3ccc(F)cc3)C2=O)c1 (stereo not given) | 2
10 | Cc1ccc(Cl)cc1N1CCN(c2ncnc3sc(C(=O)O)c(C)c23)CC1 | 75
11 | COc1ccc(-n2nc(C(=O)NCC(=O)N3CCC(Cc4ccccc4)CC3)c3ccccc3c2=O)cc1 | 0
12 | O=C(Cc1ccccc1F)Nc1ccc2ncnc(N3CCCC3)c2c1 | 14
13 | CC(=O)N1CCC2(CC1)CC(=O)c1ccc(OCC(=O)Nc3cccc(C(F)(F)F)c3)cc1O2 | 95
14 | CCc1ccc(NC(=O)c2c(O)c3ccccc3n(CC)c2=O)cc1 | 46
15 | Cc1nc(Nc2ccc(NC(=O)Nc3cccc(C(F)(F)F)c3)cc2)cc(N2CCCCC2)n1 | 97
16 | CCOc1ccc(NC(=O)N2CCCC(c3cccc(C(=O)Nc4cccc(Cl)c4)c3)C2)cc1 (stereo not given) | 5
17 | CCc1ccc(-n2c(SCc3ccccc3C)nc3[nH]ncc3c2=O)cc1 | 10
18 | O=C(Cc1ccc(NC(=O)N2CCSc3ncccc32)cc1)NCc1cccc(Cl)c1 | 14
19 | Fc1ccc(-c2noc3ncnc(N4CCN(c5ccccn5)CC4)c23)cc1 | 19

Row | Compound | inhibition [%]
20 | CCC(=O)Nc1nc2cc(NC(=O)c3cc(-c4ccccc4)nc4c(C)cccc34)ccc2s1 | 0
21 | O=C1Nc2ccc(F)cc2/C1=N\Nc1ccc(C(=O)N2CCCC2COc2ccc(F)cc2)cc1 (stereo not given) | 3
22 | Cc1ccc2sc(NNC(=O)c3ccc(S(=O)(=O)CN4CCc5ccccc5C4)cc3)nc2c1C | 6
23 | O=C(NCC1CCN(c2nsc(Cc3ccc(F)cc3)n2)CC1)Nc1ccc(Cl)c(Cl)c1 | 101
24 | CNc1nccc(N2CCC(CC(=O)NCc3nc4ccccc4n3C)CC2)n1 | 24
25 | CC(=O)c1cccc(NC(=O)c2nnn(-c3ccc4noc(-c5ccccc5)c4c3)c2C)c1 | 80
26 | CCn1c(=O)c(=O)n(CC(=O)NCc2ccccc2)c2ccccc21 | -2
27 | COc1cc(NC(=O)N2CCN(c3cc(-c4ccc(C)cc4)ncn3)CC2)cc(OC)c1 | -6
28 | O=C(Nc1ccc2c(c1)OCCO2)c1cccc(Nc2cc(-c3ccc(F)cc3)ncn2)c1 | 4
29 | Cc1oc2ccccc2c1C(=O)CSc1nc(O)c2c(n1)NCN2 | 14
30 | CCOC(=O)Cc1ccc(NC(=O)NC(C(=O)N2CCc3ccccc32)c2ccccc2)cc1 (stereo not given) | 16
31 | CN(C)c1ccc(CNC(=O)C2CCN(c3ccc4nncn4n3)CC2)cc1 | 0
32 | NNc1cc(N2CCN(c3ccccc3F)CC2)ncn1 | 3
33 | CCOC(=O)c1c(C)oc2ncnc(NCCc3ccc(OCC)cc3)c12 | 9
34 | O=C(Nc1c(C(=O)c2ccccc2)oc2ccccc12)c1cc(-c2ccc3c(c2)OCCO3)on1 | 18
35 | Cc1ccc(N2Cc3c(ncnc3N3CCCC(C(=O)NCc4cccc(C(F)(F)F)c4)C3)N2)cc1 (stereo not given) | -7
36 | Cc1noc2ncnc(N3CCC(C(=O)NCCCN4CCOCC4)CC3)c12 | 1
37 | CCNc1c(NC(=O)NCc2ccc(C)cc2)c(=O)oc2ccccc12 | -3
38 | O=C(OCc1cc(=O)n2nc(C3CC3)sc2n1)c1ccc(NC(=O)c2cccc3ccccc23)cc1 | 0

Row | Compound | inhibition [%]
39 | Cc1cc(C)c2c(n1)SCCN2C(=O)Nc1ccc(C(=O)NCc2cccc(Cl)c2)cc1 | 0
40 | O=C(Nc1ccc(Cl)cc1)N1CCCC(c2cccc(C(=O)N3CCC4(CC3)OCCO4)c2)C1 (stereo not given) | -3
41 | COc1cccc(NC(=O)CSc2nc3ccc(NC(=O)Nc4cc(C)cc(C)c4)cc3s2)c1 | 20
42 | O=C(NC1C2CS(=O)(=O)CC2NN1c1ccc(F)cc1)c1ccc(C(=O)c2ccccc2)cc1 (stereo not given) | 0
43 | COc1ccc(CNC(=O)Cn2cnc3c(C(N)=O)nsc3c2=O)cc1 | 4
44 | CCOC(=O)Cc1ccc(NC(=O)Nc2cc3c(cc2N2CCCC2)n(CC)c(=O)n3CC)cc1 | 11
45 | CN[C@@H]1C[C@H]2O[C@@](C)([C@@H]1OC)n1c3ccccc3c3c4c(c5c6ccccc6n2c5c31)C(=O)NC4 | 99
46 | COc1ccc(OC)c(NC(=O)Nc2ccc(Cn3cnc(-c4nc(-c5ccc(F)cc5)no4)c3)cc2)c1 | 1
47 | Cc1ccc(-c2nccc(Nc3cccc(C(=O)NCc4ccc(C(C)C)cc4)c3)n2)cc1 | 2
48 | COc1ccc(CC(=O)N2CCN(c3ccc(NC(=O)Nc4cccc(C(F)(F)F)c4)cc3)CC2)cc1 | 99
49 | CC(=O)c1ccc(NC(=O)COc2cc(C(F)(F)F)c3c(C)nn(-c4ccc(C)cc4)c3n2)cc1 | -6
50 | O=C(Nc1ccco1)NC1CCN(c2ncnc3c2CCC3)C1 (stereo not given) | 15
51 | COc1ccc(CNC(=O)C2CCCN(c3cnc4nccnc4c3)C2)cc1 (stereo not given) | 3
52 | Cc1ccc(-c2nc(C)cc(OCC(=O)Nc3ccc(C#N)cc3)n2)cc1 | -4
53 | O=C(NC1CCCc2ccccc21)C1CCN(C2=CN3C(C=C2)NNC3c2ccc(Cl)cc2)CC1 (stereo not given) | -2
54 | Cc1ccc(-n2ncc(C(C)(C)C)c2NC(=O)CN(C)C(=O)Nc2ccccc2C)c(C)c1 | 13
55 | CCCc1c(C(=O)Nc2ccc(NC(C)=O)cc2)nnn1-c1ccc2noc(-c3ccccc3)c2c1 | 27
56 | Cc1ccc(Cl)cc1N1CCN(C(=O)c2noc3ncnc(N4CCCC4)c23)CC1 | 4

Target: CDK8/Cyclin C (Homo sapiens, UniProt P49336)
Sequence (P49336 whole entry): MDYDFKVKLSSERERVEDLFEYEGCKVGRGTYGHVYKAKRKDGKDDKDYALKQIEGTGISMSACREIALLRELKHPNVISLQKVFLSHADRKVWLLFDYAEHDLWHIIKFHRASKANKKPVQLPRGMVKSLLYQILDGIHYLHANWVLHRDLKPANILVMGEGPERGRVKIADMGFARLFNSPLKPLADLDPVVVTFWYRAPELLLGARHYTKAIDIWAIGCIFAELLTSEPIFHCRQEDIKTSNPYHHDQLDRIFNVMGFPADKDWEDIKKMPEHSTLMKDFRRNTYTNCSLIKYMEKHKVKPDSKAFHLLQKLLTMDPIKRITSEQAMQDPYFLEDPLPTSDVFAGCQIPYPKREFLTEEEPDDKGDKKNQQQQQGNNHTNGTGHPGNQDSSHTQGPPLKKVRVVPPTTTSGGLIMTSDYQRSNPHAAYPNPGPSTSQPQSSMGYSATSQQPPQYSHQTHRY
Sequence (P24863 whole entry, further chain): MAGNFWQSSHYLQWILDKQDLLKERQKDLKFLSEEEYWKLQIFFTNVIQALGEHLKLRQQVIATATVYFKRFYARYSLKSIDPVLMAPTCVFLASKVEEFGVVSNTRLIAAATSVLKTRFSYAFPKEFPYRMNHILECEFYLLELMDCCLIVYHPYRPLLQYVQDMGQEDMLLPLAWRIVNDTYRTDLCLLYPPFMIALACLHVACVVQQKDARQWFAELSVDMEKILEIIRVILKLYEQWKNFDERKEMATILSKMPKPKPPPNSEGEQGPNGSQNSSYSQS
Experiment: Inhibition of Alexa647 tracer binding to full length recombinant human His-tagged CDK8/Cyclin C expressed in baculovirus expression system preincubated for 20 mins followed by tracer addition measured after 60 mins by TR-FRET based Lanthascreen assay

Row | Compound | IC50 [nM]
57 | O=C(Nc1cccc(C(F)(F)F)c1)Nc1nnc(SCc2nc3ccccc3[nH]c2=O)s1 | 9
58 | O=C(NCC1CCN(c2nsc(Cc3ccc(F)cc3)n2)CC1)Nc1ccc(Cl)c(Cl)c1 | 6.5
59 | CC(=O)c1cccc(NC(=O)c2nnn(-c3ccc4noc(-c5ccccc5)c4c3)c2C)c1 | 93
60 | O=C(Nc1cccc(Cl)c1)Nc1nnc(CC(=O)N2CCCC2)s1 | 183
61 | COc1ccc(CC(=O)N2CCN(c3ccc(NC(=O)Nc4cccc(C(F)(F)F)c4)cc3)CC2)cc1 | 36

Target: T1, CDK8/Cyclin C (Homo sapiens)
Experiment: Inhibition of Alexa647 tracer binding to full length recombinant human His-tagged CDK8/Cyclin C expressed in baculovirus expression system at 1 uM preincubated for 20 mins followed by tracer addition measured after 60 mins by TR-FRET based Lanthascreen assay relative to control

Row | Compound | inhibition [%]
62 | O=C(CSc1ccc(N2CCCC(C(=O)NC3CC3)C2)nn1)Nc1cccc(C(F)(F)F)c1 (stereo not given) | 5
63 | Cc1ccc(Nc2cc(Nc3ccc(NC(=O)Nc4cccc(F)c4)cc3)nc(C)n2)cc1 | 5
64 | C=CCNC(=O)C1CC(=O)N(c2ccc(OCC(=O)Nc3cccc(C(F)(F)F)c3)cc2)C1 (stereo not given) | 3
65 | NC(=O)C1CC(=O)N(c2ccc(OCC(=O)Nc3cccc(C(F)(F)F)c3)cc2)C1 (stereo not given) | 12
66 | CCc1nnc(NS(=O)(=O)c2ccc(NC(=O)Nc3ccc(Cl)c(Cl)c3)cc2)s1 | 59
67 | O=C(Nc1cccc(C(F)(F)F)c1)Nc1nnc(SCc2nc3ccccc3[nH]c2=O)s1 | 100
68 | Cc1cc2nc(CSc3ccc(NC(=O)Nc4cccc(C(F)(F)F)c4)cc3)cc(=O)n2o1 | 59
69 | C=CCNC(=O)C1CCN(C(=O)Nc2ccc(NC(=O)Nc3cccc(F)c3)cc2)CC1 | 8
70 | CCNC(=O)c1cn(-c2ccc(SCC(=O)Nc3cccc(C(F)(F)F)c3)nn2)cn1 | 16
71 | COc1ccc(C(=O)NCc2nnc(SCC(=O)Nc3cccc(C(F)(F)F)c3)o2)cc1OC | 4
72 | O=C(Nc1cccc(Cl)c1)Nc1nnc(CC(=O)N2CCCC2)s1 | 85
73 | COc1ccc(C(=O)N2CCCN(c3ccc(NC(=O)Nc4cccc(C(F)(F)F)c4)cn3)CC2)cc1 | 82
74 | CC(=O)Nc1ccc(NC(=O)Cc2csc(NC(=O)Nc3cccc(Cl)c3)n2)cc1 | 13
75 | Cc1nc(Nc2ccc(NC(=O)Nc3cccc(Cl)c3)cc2)cc(N2CCCCC2)n1 | 14

Target: T1, CDK8/Cyclin C (Homo sapiens)
Experiment: Inhibition of Alexa647 tracer binding to full length recombinant human His-tagged CDK8/Cyclin C expressed in baculovirus expression system at 2.5 uM preincubated for 20 mins followed by tracer addition measured after 60 mins by TR-FRET based Lanthascreen assay relative to control

Row | Compound | inhibition [%]
76 | Cc1c(C(=O)Nc2ccc(-n3cnnn3)cc2)nnn1-c1ccc2noc(-c3ccccc3)c2c1 | -2
77 | CC(=O)Nc1ccc(NC(=O)c2nnn(-c3ccc4noc(-c5ccccc5)c4c3)c2C)cc1 | 59
78 | CC(=O)Nc1ccc(NC(=O)c2nnn(-c3ccc4noc(-c5ccc(Cl)cc5)c4c3)c2C)cc1 | 4
79 | Cc1c(C(=O)Nc2cccc(C(F)(F)F)c2)nnn1-c1ccc2noc(-c3ccc(Cl)cc3)c2c1 | 19
80 | CC(=O)Nc1ccc(NC(=O)c2ccc3noc(-c4ccc(Cl)cc4)c3c2)cc1 | 43

Target: T1, CDK8/Cyclin C (Homo sapiens)
Experiment: Inhibition of Alexa647 tracer binding to full length recombinant human His-tagged CDK8/Cyclin C expressed in baculovirus expression system at 0.5 uM preincubated for 20 mins followed by tracer addition measured after 60 mins by TR-FRET based Lanthascreen assay relative to control

Row | Compound | inhibition [%]
81 | CC(=O)N1CCC2(CC1)CC(=O)c1ccc(OCC(=O)Nc3cccc(C(F)(F)F)c3)cc1O2 | 69
82 | Cc1nc(Nc2ccc(NC(=O)Nc3cccc(C(F)(F)F)c3)cc2)cc(N2CCCCC2)n1 | 61
83 | O=C(NCC1CCN(c2nsc(Cc3ccc(F)cc3)n2)CC1)Nc1ccc(Cl)c(Cl)c1 | 101
84 | CN[C@@H]1C[C@H]2O[C@@](C)([C@@H]1OC)n1c3ccccc3c3c4c(c5c6ccccc6n2c5c31)C(=O)NC4 | 100
85 | COc1ccc(CC(=O)N2CCN(c3ccc(NC(=O)Nc4cccc(C(F)(F)F)c4)cc3)CC2)cc1 | 95
